Assay results: US8722868B2, “Glycosyltransferase, novel glycosyltransferase gene, and novel sugar donor compound” (National University Corporation Tokyo University of …, priority 2009, dated 2014)

Biological target: T1, enzyme purified from pink petals of a carnation (variety: "Beam Cherry") (glycosyltransferase) (Dianthus caryophyllus, UniProt E3W9M2)
T1 construct: the enzyme comprising 502 amino acid residues was translated, followed by amino acid removal via processing; from tissue; host or cells: petals of carnation, variety Beam Cherry
T1 sequence (E3W9M2 31-502): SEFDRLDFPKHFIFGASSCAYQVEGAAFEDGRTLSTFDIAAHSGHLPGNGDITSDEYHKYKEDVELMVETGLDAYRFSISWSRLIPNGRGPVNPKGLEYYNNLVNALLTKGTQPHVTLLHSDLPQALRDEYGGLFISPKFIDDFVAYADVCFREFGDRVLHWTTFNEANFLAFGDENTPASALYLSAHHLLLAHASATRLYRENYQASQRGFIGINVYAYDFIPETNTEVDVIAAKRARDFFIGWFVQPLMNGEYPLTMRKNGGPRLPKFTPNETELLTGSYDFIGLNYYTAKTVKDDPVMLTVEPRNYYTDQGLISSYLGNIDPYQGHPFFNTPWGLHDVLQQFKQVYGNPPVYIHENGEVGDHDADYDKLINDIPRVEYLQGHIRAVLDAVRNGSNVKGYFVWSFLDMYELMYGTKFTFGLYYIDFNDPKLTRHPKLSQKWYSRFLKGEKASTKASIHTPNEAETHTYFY
Test: Relative activity of glycosyltransferase purified from carnation on each sugar donor (HPLC)
Format: biochemical
Conditions: purified enzyme 135 ng, cyanidin 3-glucoside 200 μM, sugar donor 500 μM, citric acid buffer pH 5.6, 30° C., 15 minutes; HPLC area of cyanidin 3,5-O-β-diglucoside
Procedure: An enzyme reaction was carried out at 30° C. for 15 minutes using an enzyme (135 ng) purified from pink petals of a carnation (variety: “Beam Cherry”) by the method described in Example 2 ((1) and (2)), cyanidin 3-glucoside (200 μM), and a sugar donor (1-O-β-D-vanillyl glucose or any of 1-O-β-D-p-coumaryl glucose, 1-O-β-D-caffeyl glucose, 1-O-β-D-feruloyl glucose, and 1-O-β-D-sinapoyl glucose that had been enzymatically synthesized according to the method described in Matsuba Y et al., Plant Biotechnology vol. 25, No. 4 (2008) pp. 369-375) (500 μM) in a reaction solution adjusted to 30 μl with the addition of a citric acid buffer (pH 5.6). A 20% phosphoric acid aqueous solution was added to the reaction liquid so as to result in a final phosphoric acid concentration of 1%. Thus, the reaction was terminated, followed by centrifugation. The resulting supernatant was subjected to separation using a HPLC column (Chromolith SpeedROD, 4.6×50 mm, Merck), eluent A (a 1.5% phosphoric acid aqueous solution), and eluent B (a 90% methanol aqueous solution) with a linear gradient of 18% to 28% liquid B (flow rate: 3.0 ml/min, 520 nm) (5 minutes), followed by analysis. The relative activity of the enzyme on each sugar donor was determined by calculating the area of the reaction product (cyanidin 3,5-O-β-diglucoside) on an HPLC chromatogram at a wavelength of 505 nm.

## COc1cc(C(=O)OC2OC(CO)C(O)C(O)C2O)ccc1O (stereo not shown)
  Relative activity of an enzyme on a sugar donor (when synthetic 1-O-β-vanillyl glucose is set as 100): 100
